How the values were obtained:
NK-YS (IL-2 2.5 ng/mL) [1] = experiment: percent inhibition of viability; higher = more inhibition; conditions: 72 h
SNK-6 (IL-2 2.5 ng/mL) [2] = experiment: as above; conditions: 72 h
IMC-1 (IL-2 20 ng/mL) [3] = experiment: as above; conditions: 72 h
DERL-7 (IL-2 2.5 ng/mL) [4] = experiment: as above; conditions: 72 h
KHYG-1 (IL-2 2.5 ng/mL) [5] = experiment: as above; conditions: 72 h
[6] = tested on: normal primary NK cells, pool 1 (3 donors) (IL-2 2.5 ng/mL); experiment: as above; conditions: 72 h
KAI3 (IL-2 2.5 ng/mL) [7] = experiment: as above; conditions: 72 h
[8] = tested on: normal primary NK cells, pool 1 (3 donors), resting (IL-2 0 ng/mL); experiment: as above; conditions: 72 h
[9] = tested on: normal primary NK cells, pool 2 (3 donors) (IL-2 2.5 ng/mL); experiment: as above; conditions: 72 h
NK-92 (IL-2 2.5 ng/mL) [10] = experiment: as above; conditions: 72 h
NKL (IL-2 2.5 ng/mL) [11] = experiment: as above; conditions: 72 h
YT (IL-2 2.5 ng/mL) [12] = experiment: as above; conditions: 72 h
[13] = tested on: normal primary NK cells, pool 3 (3 donors) (IL-2 2.5 ng/mL); experiment: as above; conditions: 72 h
[14] = tested on: normal NK cells expanded with K562-aAPC; experiment: as above; conditions: 72 h, IL-2 2.5 ng/mL
Description: (§1)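 Drug sensitivity and resistance testing on K562-aAPC-expanded normal NK cells: 5 concentrations (10-fold steps over a 10,000-fold range), 72 h at 37 °C, viability by CellTiter-Glo normalised to DMSO and benzethonium chloride controls; DSS from the fitted curve.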

NK-YS (IL-2 2.5 ng/mL) [15] = experiment: drug sensitivity score (DSS) (DSS units); higher = more sensitive; extreme values may be limits of the assay; conditions: 72 h
SNK-6 (IL-2 2.5 ng/mL) [16] = experiment: as above; conditions: 72 h
IMC-1 (IL-2 20 ng/mL) [17] = experiment: as above; conditions: 72 h
DERL-7 (IL-2 2.5 ng/mL) [18] = experiment: as above; conditions: 72 h
KHYG-1 (IL-2 2.5 ng/mL) [19] = experiment: as above; conditions: 72 h
[20] = tested on: normal primary NK cells, pool 1 (3 donors) (IL-2 2.5 ng/mL); experiment: as above; conditions: 72 h
KAI3 (IL-2 2.5 ng/mL) [21] = experiment: as above; conditions: 72 h
[22] = tested on: normal primary NK cells, pool 1 (3 donors), resting (IL-2 0 ng/mL); experiment: as above; conditions: 72 h
[23] = tested on: normal primary NK cells, pool 2 (3 donors) (IL-2 2.5 ng/mL); experiment: as above; conditions: 72 h
NK-92 (IL-2 2.5 ng/mL) [24] = experiment: as above; conditions: 72 h
NKL (IL-2 2.5 ng/mL) [25] = experiment: as above; conditions: 72 h
YT (IL-2 2.5 ng/mL) [26] = experiment: as above; conditions: 72 h
[27] = tested on: normal primary NK cells, pool 3 (3 donors) (IL-2 2.5 ng/mL); experiment: as above; conditions: 72 h
[28] = tested on: normal NK cells expanded with K562-aAPC; experiment: as above; conditions: 72 h; IL-2 2.5 ng/mL
Description: as §1

Cc1cn(-c2cc(NC(=O)c3ccc(C)c(Nc4nccc(-c5cccnc5)n4)c3)cc(C(F)(F)F)c2)cn1 [Nilotinib] (max concentration tested 10000 nM)
percent inhibition of viability [%]
Conditions	1 nM	10 nM	100 nM	1000 nM	10000 nM
DERL-7 (IL-2 2.5 ng/mL) [4]	-4.23	4.31	-3.59	-5.83	-5.46
IMC-1 (IL-2 20 ng/mL) [3]	-4.03	-1.9	2.58	0.7	-38.1
KAI3 (IL-2 2.5 ng/mL) [7]	-3.54	-7.12	4.99	7.48	20
KHYG-1 (IL-2 2.5 ng/mL) [5]	-0.89	0.67	11.9	5.38	17.9
NK-92 (IL-2 2.5 ng/mL) [10]	12.4	5.92	27.1	23.8	33.9
NK-YS (IL-2 2.5 ng/mL) [1]	-1.07	-0.64	9.04	11.3	15.7
NKL (IL-2 2.5 ng/mL) [11]	-17.5	-6.91	-4.77	29.9	50.9
SNK-6 (IL-2 2.5 ng/mL) [2]	11.9	22.4	9.61	18.6	37.7
YT (IL-2 2.5 ng/mL) [12]	1.35	1.76	8.97	16.1	18.2
[6]	3.44	-14	-6.22	-13.6	-12.9
[8]	7.74	-12.7	-5.01	-11.6	-17.4
[9]	-15.7	-12.8	-10.3	-4.04	1.26
[13]	-13.2	-5.87	-1.78	-9.25	-1.3
[14]	-1.85	-4.37	-3.71	7.45	26.5

Conditions	drug sensitivity score
DERL-7 (IL-2 2.5 ng/mL) [18]	0
IMC-1 (IL-2 20 ng/mL) [17]	0
KAI3 (IL-2 2.5 ng/mL) [21]	0.95
KHYG-1 (IL-2 2.5 ng/mL) [19]	0.72
NK-92 (IL-2 2.5 ng/mL) [24]	7.73
NK-YS (IL-2 2.5 ng/mL) [15]	1.36
NKL (IL-2 2.5 ng/mL) [25]	6.35
SNK-6 (IL-2 2.5 ng/mL) [16]	6.76
YT (IL-2 2.5 ng/mL) [26]	2.28
[20]	0
[22]	0
[23]	0
[27]	0
[28]	2.11

O=C(c1cccc(Cl)c1F)N1CCN(Cc2cccc(Nc3nccs3)n2)CC1 [MK-8745] (max concentration tested 2500 nM)
percent inhibition of viability [%]
Conditions	0.25 nM	2.5 nM	25 nM	250 nM	2500 nM
DERL-7 (IL-2 2.5 ng/mL) [4]	-8.45	2.62	1.62	22	83.1
IMC-1 (IL-2 20 ng/mL) [3]	-1.25	-4.64	-0.96	2.91	66.8
KAI3 (IL-2 2.5 ng/mL) [7]	-2.71	2.86	-1.01	18.3	36.5
KHYG-1 (IL-2 2.5 ng/mL) [5]	-1.65	-5.36	-0.69	6.09	44.4
NK-92 (IL-2 2.5 ng/mL) [10]	-12.1	-7.81	-0.68	8.86	26.2
NK-YS (IL-2 2.5 ng/mL) [1]	-0.85	-3.89	-0.06	38.4	61.3
NKL (IL-2 2.5 ng/mL) [11]	-14.5	-12.8	-23.9	17.2	40.3
SNK-6 (IL-2 2.5 ng/mL) [2]	-0.59	0.91	-4.8	47.9	76.6
YT (IL-2 2.5 ng/mL) [12]	-0.09	-1.63	-2.07	7.04	49.4
[6]	-9.49	-9.51	-7.79	0.54	-4.11
[8]	-8.12	-10.6	-11.2	9.28	-1.15
[9]	-9.44	-9.06	-12.7	-6.66	-1.81
[13]	-9.39	-6.67	-11.6	-9.93	-1.62
[14]	-2.18	-4.25	-9.82	1.43	48.4

Conditions	drug sensitivity score
DERL-7 (IL-2 2.5 ng/mL) [18]	7.96
IMC-1 (IL-2 20 ng/mL) [17]	4.06
KAI3 (IL-2 2.5 ng/mL) [21]	4.06
KHYG-1 (IL-2 2.5 ng/mL) [19]	3.3
NK-92 (IL-2 2.5 ng/mL) [24]	2.22
NK-YS (IL-2 2.5 ng/mL) [15]	7.96
NKL (IL-2 2.5 ng/mL) [25]	4.29
SNK-6 (IL-2 2.5 ng/mL) [16]	9.92
YT (IL-2 2.5 ng/mL) [26]	3.79
[20]	0
[22]	0
[23]	0.89
[27]	0.89
[28]	2.71

Reference: the supplement of paper PMC5908809
